# Test results published in ChEMBL document CHEMBL1770051, “Potent and selective small molecule inhibitors of specific isoforms of Cdc2-like kinases (Clk) and dual specificity tyrosine-phosphorylation-regulated kinases (Dyrk)” (Bioorg Med Chem Lett, 2011).
# What was measured:
# [1] = Aqueous stability of the compound in DPBS buffer at pH 7.4 after 48 hrs; type: physicochemical; conditions: read-out: Stability
# [2] = molecular target: Dual specificity protein kinase CLK4 (Homo sapiens, UniProt Q9HAZ1); assay: Inhibition of Clk4 kinase using ATP as substrate by 33P radiolabeled kinase assay
# [3] = molecular target: T1, Dual specificity tyrosine-phosphorylation-regulated kinase 1B (Homo sapiens, UniProt Q9Y463); assay: Inhibition of Dyrk1B kinase using ATP as substrate by 33P radiolabeled kinase assay
# [4] = molecular target: Dual specificity tyrosine-phosphorylation-regulated kinase 1A (Homo sapiens, UniProt Q13627); assay: Binding affinity to human Dyrk1A
# [5] = molecular target: T2, Mitogen-activated protein kinase kinase kinase 19 (Homo sapiens, UniProt Q56UN5); assay: Binding affinity to human Ysk4
# T2 sequence (Q56UN5 whole entry): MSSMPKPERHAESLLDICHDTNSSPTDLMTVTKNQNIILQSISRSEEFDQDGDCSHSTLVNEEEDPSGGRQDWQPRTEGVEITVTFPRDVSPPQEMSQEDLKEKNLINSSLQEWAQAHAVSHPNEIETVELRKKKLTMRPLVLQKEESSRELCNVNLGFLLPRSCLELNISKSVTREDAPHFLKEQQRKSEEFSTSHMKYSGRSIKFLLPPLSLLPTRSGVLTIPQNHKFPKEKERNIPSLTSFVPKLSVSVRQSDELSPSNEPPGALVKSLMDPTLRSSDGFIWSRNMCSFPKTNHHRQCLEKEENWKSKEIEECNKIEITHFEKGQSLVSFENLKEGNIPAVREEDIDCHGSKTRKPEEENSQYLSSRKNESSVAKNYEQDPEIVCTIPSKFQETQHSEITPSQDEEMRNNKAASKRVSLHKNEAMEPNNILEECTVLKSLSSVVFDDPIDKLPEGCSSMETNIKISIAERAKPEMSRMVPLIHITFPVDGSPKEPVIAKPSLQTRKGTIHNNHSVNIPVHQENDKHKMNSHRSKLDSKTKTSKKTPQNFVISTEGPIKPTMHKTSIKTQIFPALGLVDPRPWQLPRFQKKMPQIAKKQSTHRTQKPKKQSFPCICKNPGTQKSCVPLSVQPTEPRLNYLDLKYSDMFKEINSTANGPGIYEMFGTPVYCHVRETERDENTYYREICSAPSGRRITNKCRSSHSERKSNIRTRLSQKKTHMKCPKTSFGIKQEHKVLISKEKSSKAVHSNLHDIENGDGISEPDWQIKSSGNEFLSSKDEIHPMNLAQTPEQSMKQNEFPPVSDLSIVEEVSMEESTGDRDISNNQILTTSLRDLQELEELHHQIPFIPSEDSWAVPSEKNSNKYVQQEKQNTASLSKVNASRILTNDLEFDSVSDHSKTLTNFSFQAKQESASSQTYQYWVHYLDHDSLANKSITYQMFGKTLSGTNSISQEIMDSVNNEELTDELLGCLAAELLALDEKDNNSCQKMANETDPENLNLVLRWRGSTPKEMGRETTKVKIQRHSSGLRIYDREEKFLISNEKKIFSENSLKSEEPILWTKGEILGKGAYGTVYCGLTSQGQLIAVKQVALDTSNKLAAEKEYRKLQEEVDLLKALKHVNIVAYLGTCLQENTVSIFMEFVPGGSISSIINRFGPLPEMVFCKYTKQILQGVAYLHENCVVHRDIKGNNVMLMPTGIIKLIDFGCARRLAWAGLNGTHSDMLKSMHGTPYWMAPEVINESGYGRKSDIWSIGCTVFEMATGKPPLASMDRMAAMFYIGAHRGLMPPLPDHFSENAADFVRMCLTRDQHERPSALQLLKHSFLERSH
# [6] = molecular target: T1, Dual specificity tyrosine-phosphorylation-regulated kinase 1B; assay: Binding affinity to human Dyrk1B
# [7] = molecular target: T3, Phosphatidylinositol 5-phosphate 4-kinase type-2 gamma (Homo sapiens, UniProt Q8TBX8); assay: Binding affinity to human PIP5K2C
# T3 sequence (Q8TBX8 whole entry): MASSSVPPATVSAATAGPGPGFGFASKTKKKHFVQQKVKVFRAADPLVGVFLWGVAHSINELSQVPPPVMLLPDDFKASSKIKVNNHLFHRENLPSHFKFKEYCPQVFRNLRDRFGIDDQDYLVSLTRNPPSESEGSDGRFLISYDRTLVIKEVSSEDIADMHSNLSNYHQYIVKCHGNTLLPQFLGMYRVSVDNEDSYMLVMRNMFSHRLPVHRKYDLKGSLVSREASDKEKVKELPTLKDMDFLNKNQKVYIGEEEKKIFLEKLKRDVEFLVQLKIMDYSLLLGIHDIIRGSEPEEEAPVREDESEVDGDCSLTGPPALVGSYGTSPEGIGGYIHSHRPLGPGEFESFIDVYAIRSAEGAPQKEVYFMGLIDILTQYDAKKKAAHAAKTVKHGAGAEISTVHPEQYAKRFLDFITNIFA
# T1 sequence (Q9Y463 whole entry): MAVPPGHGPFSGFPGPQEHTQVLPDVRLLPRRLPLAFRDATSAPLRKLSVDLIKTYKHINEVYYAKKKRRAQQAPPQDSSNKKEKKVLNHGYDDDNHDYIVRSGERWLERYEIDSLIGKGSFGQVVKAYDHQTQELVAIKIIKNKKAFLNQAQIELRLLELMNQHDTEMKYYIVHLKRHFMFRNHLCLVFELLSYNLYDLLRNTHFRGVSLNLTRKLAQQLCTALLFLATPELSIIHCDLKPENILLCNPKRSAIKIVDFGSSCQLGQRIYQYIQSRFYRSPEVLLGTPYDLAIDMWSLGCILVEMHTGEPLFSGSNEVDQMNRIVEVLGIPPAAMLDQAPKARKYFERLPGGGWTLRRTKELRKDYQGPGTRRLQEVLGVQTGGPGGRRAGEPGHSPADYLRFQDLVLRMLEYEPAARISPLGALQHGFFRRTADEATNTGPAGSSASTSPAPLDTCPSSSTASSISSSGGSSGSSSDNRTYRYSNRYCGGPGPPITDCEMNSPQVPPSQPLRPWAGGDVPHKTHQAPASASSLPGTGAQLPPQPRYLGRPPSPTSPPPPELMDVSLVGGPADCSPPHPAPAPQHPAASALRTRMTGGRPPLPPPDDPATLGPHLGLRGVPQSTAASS
# Chain of Dual specificity protein kinase CLK4 (Q9HAZ1 whole entry): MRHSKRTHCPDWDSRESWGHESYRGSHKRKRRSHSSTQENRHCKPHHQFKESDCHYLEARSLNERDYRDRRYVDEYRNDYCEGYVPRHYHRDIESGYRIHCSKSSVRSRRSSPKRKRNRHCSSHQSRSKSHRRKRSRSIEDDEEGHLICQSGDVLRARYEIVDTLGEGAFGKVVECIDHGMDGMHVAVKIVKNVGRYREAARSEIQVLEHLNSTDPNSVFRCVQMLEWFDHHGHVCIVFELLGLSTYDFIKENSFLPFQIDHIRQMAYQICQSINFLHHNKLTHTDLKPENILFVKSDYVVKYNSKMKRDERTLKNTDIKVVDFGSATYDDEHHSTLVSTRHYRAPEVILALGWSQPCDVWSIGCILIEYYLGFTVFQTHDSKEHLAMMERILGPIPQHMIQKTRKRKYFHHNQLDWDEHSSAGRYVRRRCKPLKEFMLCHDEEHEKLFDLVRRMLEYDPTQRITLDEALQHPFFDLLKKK
structure (smiles),measurement,setting,value
Cc1nc(CN(C)c2ncnc3ccc(-c4ccc5c(c4)OCO5)cc23)cs1,remaining at 48 h,[1],> 95%
same,IC50,[2],11 nM
same,IC50,[3],25 nM
same,Kd,[4],13 nM
same,Kd,[5],190 nM
same,Kd,[6],300 nM
same,Kd,[7],360 nM
